Read-outs that look alike come from different tables or passages of the source.
Experiments:
SW626 cells = experiment: MTS cell viability assay, SW626; assay type: cell-based; conditions: Homo sapiens, SW626, 48 h, read-out: IC50 of taxol
Procedure: (§1) The replication-incompetent adenoviral type 5 recombinant vectors encoding bax (Ad/Bax), and Cre recombinase (Ad/Cre), were generated as described. Ad/LacZ, encoding the E. coli LacZ gene, was provided by Robert Gerald (The Center for Transgene Technology and Gene Therapy, Leuven. Belgium). All recombinant adenoviruses were propagated in 293 cells and purified by centrifugation in CsCl gradients by a standard protocol. For viral infection in dishes, the cells were plated in 6 or 96 wells the day before the experiment. The viruses were then added at a designed multiplicity of infection (moi) and incubated for 1 to 2 hours. […]
(§2) Cells were seeded in either 6-well or 96-well plates 24 hours before viral infection. […] Cell viability was determined using a calorimetric method with 3-(4,5-dimehtylthiazol-2-yl)-5-(3-carboxymethoxyphenyl)-2-(4-sulfophenyl)-2H-tetrazolium (MTS) according to the instructions of the manufacturer (Promega). […]
(§3) To determine the cytotoxic effects of Bax, five ovarian cancer cell lines were co-infected with Ad/Bax and Ad/Cre or Ad/lacZ and Ad/Cre at ratio of 5 to 1 at a total moi of 100. After 48 hours, cell viability was determined by MTS assays (FIG. 11). […]
(§4) Stable overexpression of Bax in some cancer cell lines synergizes the killing effect of chemotherapy or radiotherapy. […] Cell viability was measured by an MTS assay. […]

[1] = test system: primary ovarian cancer cells from ascites of patients; experiment: MTS cell viability assay, primary ovarian cancer cells; assay type: cell-based, human
Procedure: Primary ovarian cancer cells were isolated by affinity purification from ascites obtained from patients with ovarian cancer. Fresh ascites was centrifuged to collect cells in suspension. The cells were then washed and resuspended in PBS with 0.1% BSA. The CC49 antibody (provided by Dr. Jeffrey Schlom, NIH, Bethesda, Md.), which specifically recognizes the pancarcinomatous antigen TAG-72, was added to the cell suspension at a concentration of 1 μg/10^7 cells, and incubated at 4° C. for one hour. To isolate the immuno-complex formed by the CC49 antibody and the TAG-72 expressing tumor cells, magnetic Dynabeads (Dynal Inc. Lake success, N.Y.) coated with a secondary anti-panmouse IgG antibody were added at a ratio of 4 beads/cell, according to the protocol of the manufacturer. The bead-targeted complexes were then washed and captured with a magnetic particle concentrator (Dynal Inc.). Finally, the purified cells were released from the beads by brief trypsinization and recovered in RPMI complete medium.
as §2

SKOV3.ip1 cells = experiment: MTS cell viability assay, SKOV3.ip1; assay type: cell-based; conditions: Homo sapiens, 48 h, read-out: IC50 of taxol
Procedure: as §1, §2, §3, §4

[2] = combined treatment with Bax (Ad/Bax plus Ad/Cre, moi 100)

**Q.** What does the source list for CC(=O)O[C@H]1C(=O)[C@@]2(C)[C@H]([C@H](OC(=O)c3ccccc3)[C@]3(O)C[C@H](OC(=O)[C@H](O)[C@@H](NC(=O)c4ccccc4)c4ccccc4)C(C)=C1C3(C)C)[C@]1(OC(C)=O)CO[C@@H]1C[C@@H]2O [taxol]?
**A.** IC50 (SW626 cells; [2]): 5 µg/mL; IC50 (SW626 cells; control cells): 31 µg/mL; cell death (MTS) ([1]; taxol 20 μg/ml alone, 48 hours): 15%; cell death (MTS) ([1]; taxol 20 μg/ml combined with Bax (Ad/Bax and Ad/Cre, 200 moi)): over 50%; IC50 (SKOV3.ip1 cells; [2]): 13 µg/mL; IC50 (SKOV3.ip1 cells; control cells): 39 µg/mL

Source: patent publication US20010010814A1, “[…] ENCODING PRO-APOPTOTIC BAX GENE AND USES THEREOF” (priority 1998, published 2001)
